Assay results from paper PMC4138103 (PLoS ONE, 2014).
Like-named read-outs stand apart in the source and are kept apart here.

Tests used:
[1] = tested on: Nicotinic receptor subunits α4 and β2; test: Brain [3H]epibatidin binding in exposed rats; format: in vivo, Rattus norvegicus; conditions: males
Description: The membrane containing pellet was homogenized in 15 volumes of 50 mM Tris-HCl buffer at pH 7.4, incubated at 25°C for 30 min, and centrifuged again at 100 000 g. The pellet from the second centrifugation was dissolved in 4 ml 0.32 M sucrose/g brain (v/w), with a final protein concentration of […] and frozen at −40°C.
Nicotinic receptor subunits α4 and β2 were analyzed as above with the following modifications: 8 µl (0.1 mg protein) of the same membrane preparation was incubated with 415–472 µl buffer (50 mM tris-HCL, pH 7.4), 0.1–1 nM [^3H]epibatidin and 0.1 mM (-)nicotine for measuring unspecific binding, to a final volume of 500 µl. […] The samples were incubated with [^3H]epibatidin for 1 h followed by vacuum filtration and scintillation counting.
Samples were vacuum filtrated trough Whatman glassfiber-filters (type GF/B, 25 mm) and washed 3×3 ml ice-cold incubation buffer. To reduce unspecific binding, the filters where pre-wetted in 1% polyetylenimine for 60 min. The filters were placed into a filtration bucket and coupled to a mechanical vacuum pump. After filtration the bucket was disassembled and the filters transferred into plastic tubes and 4 ml filtercount fluid was added. Radioactive binding was measured as disintegration per minute (DPM1) in a scintillation counter (Tri-Carb 3100TR, Perkin Elmer). The analyses were carried out in duplicates

[2] = Margin of exposure calculations; design: species or system human; conditions: for MoE, Liver p53 / MoE, Spontanous locomotor activity: females; for MoE, Liver retinol / MoE, Serum chlolesterol / MoE, Serum thyroxine / MoE, Serum triglycerids: males
From the text: They include values from the WHO mother's milk survey in 2001–2002 [1], [2], adipose tissue from the Finnish general population in 1997–1999 [83] and, plasma from the Baltic Sea fisherman cohort in 1997–1999 [41] and placenta from a Danish–Finnish joint prospective cohort in 1997–2001 [40]. WHO has established uncertainty factors (UF) for estimating tolerable intake levels of environmental chemicals. As rat and human tissue concentration data are used no interspecies toxicokinetic UF is needed. A toxicodynamic factor of 2.5 is applied to cover the interspecies variability and a factor of 10 to cover the inter-individual variability in humans. Thus, the UF of 25 is considered adequate for human health endpoints of NDL-PCBs.

Sprague-Dawley rats [3] = tested on: Sprague-Dawley rats; design: method as in Roos et al., 2011; conditions: group mean, ref Roos et al., 2011, cited from earlier work
Sprague-Dawley rats [4] = test: Histopathology; format: in vivo, Rattus norvegicus; conditions: for Emax: Rattus norvegicus; for Large thyroid follicles (%), CED / Large thyroid follicles (%), CED-L: total dose based; for Adrenal zona fasciculata hypertrophy, CED: semi-quantitative staging; for Pituitary frontal lobe vacuoles or extracellular deposits, incidence: top dose (1700 mg/kg bw)
From the text: After fixation, the samples were dehydrated, paraffinized and embedded according to standard sampling and trimming procedures. Sections of 4 µm were stained with hematoxylin and eosin in an automated way. Microscopic observations were done by initial unblinded comparison of control and top dose samples. […] Slide reading for such affected endpoints was refined by blind and/or semi-quantitative scoring.
For immunohistochemistry of TSH and ACTH in the pituitary routine sections were deparaffinized in a graded series of xylol/ethanol. Endogenous peroxidase activity was blocked in a 1/1 methanol/distilled water solution with 1/100 0.3% H2O2 added. […] Subsequent 60 min incubation with purified rabbit polyclonal IgG against rat TSH (Biogenesis), 1/1600 dilution, or against ACTH (Phoenix Pharmaceuticals), 1/1000 dilution, was followed by incubation with a biotinylated anti-rabbit second antibody in the case of TSH (1/200, 30 min; Vector) and avidin-biotin complex (Vector) according to instructions of the manufacturer; both antisera were diluted in the 1% blocking reagent solution, or with a peroxidase conjugated anti-rabbit second antibody (DAKO) in the case of ACTH. Immunostaining was completed with incubation with a standard diaminobenzidine (Sigma) solution for 5 min and counterstaining with hematoxylin (Mayer procedure). Immunostaining was evaluated by comparing the quantity and staining intensity of positive cells between control and high dose samples.
Data were also analyzed using the BMD method, which is based on dose-response modeling of the full data set using a nested family of exponential and Hill models. The analyses were done on data of males and females combined, using sex as a covariate. […] In that case, different Critical Effect Doses (CEDs) and CEDs at the lowest bound of the confidence interval (CED-L) were generated for each sex. If no difference between sexes is detected, a CED and CED-Ls for the combined data is generated. However, this was also done if the curve fits are close, and separate analyses for males and females were then performed manually. CEDs and CED-Ls were calculated at the predefined Critical Effect Size (CES) of 5% (EFSA standard) or 10%.

[5] = total dose 1000 mg/kg bw, group mean
[6] = Worst case: the most exposed fisherman
[7] = human cohort Baltic Sea fishermen
[8] = human cohort General population (Finland)
[9] = human cohort Placenta (Denmark)
[10] = human cohort Placenta (Finland)
[11] = F, CES 5%, model E4, adipose tissue concentration based
[12] = F, CES 10%, model E4, adipose tissue concentration based

Clc1cc(Cl)c(-c2cc(Cl)c(Cl)c(Cl)c2Cl)cc1Cl [PCB 180, 2,2′,3′,4,4′,5,5′-heptachlorobiphenyl]
Specific binding of [3H]epibatidin to high or low affinity sites of nicotinic receptor subunit α4/β2 vs controls ([1]; 1000 mg/kg bw): no significant difference
High affinity nicotinic receptor binding (α4/β2) [1, 5]: 656 DPM1
Low affinity nicotinic receptor binding (α4/β2) [1, 5]: 1492 DPM1
MoE, Liver p53 [2, 6]: 25
MoE, Spontanous locomotor activity [2, 6]: 0.438
MoE, Liver p53 [2, 7]: 65.2
MoE, Spontanous locomotor activity [2, 7]: 1.14
MoE, Liver p53 [2, 8]: 316
MoE, Spontanous locomotor activity [2, 8]: 5.53
MoE, Liver p53 ([2]; human cohort Mother's milk): 655
MoE, Spontanous locomotor activity ([2]; human cohort Mother's milk): 11.5
MoE, Liver p53 [2, 9]: 3109
MoE, Spontanous locomotor activity [2, 9]: 54.4
MoE, Liver p53 [2, 10]: 5396
MoE, Spontanous locomotor activity [2, 10]: 94.4
MoE, Liver retinol [2, 6]: 15.7
MoE, Serum chlolesterol [2, 6]: 76.2
MoE, Serum thyroxine [2, 6]: 97.5
MoE, Serum triglycerids [2, 6]: 6.05
MoE, Liver retinol [2, 7]: 40.9
MoE, Serum chlolesterol [2, 7]: 199
MoE, Serum thyroxine [2, 7]: 254
MoE, Serum triglycerids [2, 7]: 15.8
MoE, Liver retinol [2, 8]: 198
MoE, Serum chlolesterol [2, 8]: 963
MoE, Serum thyroxine [2, 8]: 1233
MoE, Serum triglycerids [2, 8]: 76.5
MoE, Liver retinol ([2]; human cohort Mother's milk): 410
MoE, Serum chlolesterol ([2]; human cohort Mother's milk): 1996
MoE, Serum thyroxine ([2]; human cohort Mother's milk): 2555
MoE, Serum triglycerids ([2]; human cohort Mother's milk): 159
MoE, Liver retinol [2, 9]: 1948
MoE, Serum chlolesterol [2, 9]: 9472
MoE, Serum thyroxine [2, 9]: 12124
MoE, Serum triglycerids [2, 9]: 752
MoE, Liver retinol [2, 10]: 3381
MoE, Serum chlolesterol [2, 10]: 16439
MoE, Serum thyroxine [2, 10]: 21043
MoE, Serum triglycerids [2, 10]: 1306
Body weight (Sprague-Dawley rats [3]; females, total dose 3 mg/kg bw): 215 g
Body weight (Sprague-Dawley rats [3]; females, total dose 10 mg/kg bw): 210 g
Body weight (Sprague-Dawley rats [3]; females, total dose 30 mg/kg bw): 213 g
Body weight (Sprague-Dawley rats [3]; females, total dose 100 mg/kg bw): 211 g
Body weight (Sprague-Dawley rats [3]; females, total dose 300 mg/kg bw): 212 g
Body weight (Sprague-Dawley rats [3]; females, total dose 1000 mg/kg bw): 213 g
Body weight (Sprague-Dawley rats [3]; females, total dose 1700 mg/kg bw): 208 g
Body weight (Sprague-Dawley rats [3]; males, total dose 3 mg/kg bw): 306 g
Body weight (Sprague-Dawley rats [3]; males, total dose 10 mg/kg bw): 321 g
Body weight (Sprague-Dawley rats [3]; males, total dose 30 mg/kg bw): 324 g
Body weight (Sprague-Dawley rats [3]; males, total dose 100 mg/kg bw): 322 g
Body weight (Sprague-Dawley rats [3]; males, total dose 300 mg/kg bw): 325 g
Body weight (Sprague-Dawley rats [3]; males, total dose 1000 mg/kg bw): 315 g
Body weight (Sprague-Dawley rats [3]; males, total dose 1700 mg/kg bw): 310 g
CED, Large thyroid follicles (%) (Sprague-Dawley rats [4]; [11]): 105 µg/g lipid
CED-L, Large thyroid follicles (%) (Sprague-Dawley rats [4]; [11]): 52.7 µg/g lipid
CED, Large thyroid follicles (%) (Sprague-Dawley rats [4]; [12]): 218 µg/g lipid
CED-L, Large thyroid follicles (%) (Sprague-Dawley rats [4]; [12]): 110 µg/g lipid
Emax (Sprague-Dawley rats [4]; F, model E4, controls vs high dose according to the fitted model, read-out: Maximum response, Large thyroid follicles (%)): -70.9%
Emax (Sprague-Dawley rats [4]; females, controls vs high dose, fitted model, read-out: Large thyroid follicles (%), Maximum response): -71%
Hyperemia of inner zones of adrenal cortex, CEDL (Sprague-Dawley rats [4]; females): 2526 mg/kg bw
Activation of adrenal zona fasciculata, difference in CED values between genders (Sprague-Dawley rats [4]; females more sensitive, semi-quantitative evaluation): 297 fold
Large thyroid follicles (%), CED (Sprague-Dawley rats [4]; females, CES 5%): 22.6 mg/kg bw
Large thyroid follicles (%), CED-L (Sprague-Dawley rats [4]; females, CES 5%): 11.6 mg/kg bw
Large thyroid follicles (%), CED (Sprague-Dawley rats [4]; females, CES 10%): 131 mg/kg bw
Large thyroid follicles (%), CED-L (Sprague-Dawley rats [4]; females, CES 10%): 81.0 mg/kg bw
Area of large thyroid follicles, CED (Sprague-Dawley rats [4]; females, adipose tissue concentration based): 105 µg/g lipid
Thyroid follicle depletion in females, CED (Fig. 7C) (Sprague-Dawley rats [4]; females, legend says CES 5%): 131
Thyroid follicle depletion in females, CED-L05 (Fig. 7C) (Sprague-Dawley rats [4]; females, legend says CES 5%): 80.5
Thyroid follicle depletion in females, CED-L95 (Fig. 7C) (Sprague-Dawley rats [4]; females, legend says CES 5%): 213.3
Adrenal zona fasciculata hypertrophy, CED (Sprague-Dawley rats [4]; females): 2.0 mg/kg bw
Pituitary frontal lobe vacuoles or extracellular deposits, incidence (Sprague-Dawley rats [4]; females): 2/5
Adrenal zona fasciculata hypertrophy, CED (Sprague-Dawley rats [4]; males): 594 mg/kg bw
Pituitary frontal lobe vacuoles or extracellular deposits, incidence (Sprague-Dawley rats [4]; males): 4/5
